Experimental data reported in publication PMC10281360 (Microbial Biotechnology, 2023).

System: rAbf43A
Experiment: HPLC of released arabinose, Michaelis-Menten non-linear regression
Assay type: biochemical, metagenome: lignocellulolytic bacterial consortium EMSD5
Conditions: 0.05 M citric-Na2HPO4 pH 5.0, 40 °C, 10 min; AXHd3 activity; 0-40.0 mM substrate

For `OC[C@@H]1O[C@@H](O[C@@H]2[C@@H](O[C@@H]3O[C@@H](CO)[C@H](O)[C@H]3O)[C@H](O[C@@H]3CO[C@@H](O[C@@H]4COC(O)[C@H](O)[C@H]4O)[C@H](O)[C@H]3O)OC[C@H]2O)[C@H](O)[C@H]1O` (stereo partly drawn) [A2,3XX, 2^3,3^3‐di‐α‐L‐arabinofuranosyl‐xylotriose], which Km is on record?
Its Km is 8.03 mM.
